# 5Fam = 5-carboxyfluorescein label on the N-terminus
# What was measured:
# human apo-SF-1 LBD [1] = biological target: T1, human apo-SF-1 LBD (Homo sapiens, UniProt Q13285, C247S/C412S); experiment: Native gel (electromobility) shift assay of equilibrium phosphoinositide binding to apo-SF-1 LBD; settings: for Kd: apo-SF-1 LBD 1 μM, 37°C 1 h, 1-site binding model, SEM, read-out: apparent Kd of phosphoinositide binding to SF-1 LBD
# T1 construct: human SF-1 LBD comprising amino acids 218–461 of human SF-1; 6X-HIS (N, cleaved yes); TEV site (N, cleaved yes); made in house; host or cells: E. coli BL21 (DE3)
# T1 sequence (Q13285 218-461 C247S/C412S): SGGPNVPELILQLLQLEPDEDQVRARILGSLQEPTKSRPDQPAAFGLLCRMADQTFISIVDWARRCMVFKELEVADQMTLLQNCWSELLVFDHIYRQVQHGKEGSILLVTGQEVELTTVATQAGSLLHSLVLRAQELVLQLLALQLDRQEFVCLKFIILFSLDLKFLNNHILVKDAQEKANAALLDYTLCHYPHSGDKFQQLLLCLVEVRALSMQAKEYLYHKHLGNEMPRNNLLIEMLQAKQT
# Method: Apparent Kd interaction data of phosphoinositides was determined on human apo-SF-1 LBD by a previously described native gel shift assay ([21]) to monitor equilibrium binding to each phosphoinositide. Briefly, apo-SF-1 ligand binding domain was generated using an on-column washout procedure to remove bound phospholipid, wherein pure SF-1 bound to dipalmitoyl PIP3 was loaded onto a Mono Q column and washed with 1.0 L of 20 mM Hepes (8.0), 1 mM EDTA with 2 mM CHAPS at 2 ml/min to remove all bound phospholipid from SF-1 by on-column dilution. The buffer was then changed into 20 mM Hepes (8.0), 1 mM EDTA to remove detergents, and apo-SF-1 eluted using a ammonium acetate gradient, pooled, protein concentration quantitated, and then used in the phosphoinositide binding assay. For the phosphoinositide binding assay, each phosphoinositide was resuspended in water, sonicated, diluted, and stored under nitrogen at 4°C. Phosphoinositides were always re-sonicated immediately before use in binding assays. Two microliters of serially diluted phosphoinositide were added to binding reactions of 25 μl total volume, containing 1 μM final concentration of apo-SF-1 LBD in 20 mM Hepes (8.0), 1 mM EDTA, and 10 mM ammonium acetate in 200 μl polypropylene PCR strip tubes. Binding reactions were incubated at 37°C for 1 h in a PCR thermocycler with a heated reaction cover, the reaction mixed with 3 μl native loading buffer (40% glycerol, 0.005% Ponceau S) and run on a 4% to 16% polyacrylamide Bis-Tris NativePage™ gel (Invitrogen). After fixation and silver staining (BioRad), gels were scanned, the phosphoinositide-shifted band quantitated using NIH image, and apparent Kd determined by nonlinear curve fit to a single-site binding model in GraphPad Prism. Data represent at least three independent replicates.
# human apo-SF-1 LBD [2] = biological target: T1, human apo-SF-1 LBD; design: method as in PMID 25288771; settings: previous work; cited from earlier work
# human SF-1 LBD (2CS) = biological target: T2, human SF-1 LBD (2CS) (Homo sapiens, UniProt Q13285, C247S/C412S); experiment: Fluorescence polarization coactivator binding assay: 5Fam-labeled PGC1α peptide binding to lipid-complexed SF-1 LBD; settings: SF-1 bound to dioleoyl vs dipalmitoyl PIP3
# T2 construct: human SF-1 LBD (218–461) 2CS “Cys-lite” mutant (C247S and C412S); 6X-HIS (N, cleaved yes); TEV site (N, cleaved yes); made in house; host or cells: E. coli BL21 (DE3); peptide purchased from New England Peptide
# T2 sequence (Q13285 218-461 C247S/C412S): as above
# Excerpt: The same human SF-1 LBD (2CS) construct used for crystallization was complexed with dioleoyl PIP3 and subjected to anion exchange chromatography to separate PIP3-bound species from bacterial phospholipid-bound species. PIP3-bound SF-1 elutes during anion exchange chromatography at higher ionic strength than bacterial phospholipid-bound SF-1 because of the negatively charged phosphates on the PIP3 headgroup. The PIP3-bound and bacterial phospholipid–bound fractions were pooled and concentrated as above, then serially diluted into assay buffer (20 mM Hepes [7.5], 150 mM NaCl) in black-walled 384-well nonprotein binding plates, with 50 μM SF-1 LBD as the highest concentration and a constant 25 μL volume in each well. Reproducibility in the FP assay critically relies on using nonprotein binding plates. To each well, an equal volume of N-terminal 5Fam-labeled PGC1α co-activator peptide (5Fam-EEPSLLKKLLLAPA-OH) was added to a final concentration of 100 nM fluorescently labeled peptide (purchased from New England Peptide). After a 1-h incubation nutating at room temperature in the dark, fluorescence polarization was measured on the Biotek Neo Plate reader at the Vanderbilt High-throughput Screening Center. Data were fit to a standard one-site binding model in GraphPad Prism, and all data represent at least three independent replicates.
# SF-1 LBD = biological target: T3, SF-1 LBD (Homo sapiens, UniProt Q13285, C247S/C412S); experiment: Limited trypsin proteolytic sensitivity assay of SF-1 LBD bound to PIP3; settings: trypsin:SF-1 1:500 (w/w), 25°C, 60 min time course; compared with PIP3(16:0/16:0)
# T3 construct: human SF-1 LBD comprising amino acids 218–461 of human SF-1; 6X-HIS (N, cleaved yes); TEV site (N, cleaved yes); made in house; host or cells: E. coli BL21 (DE3)
# T3 sequence (Q13285 218-461 C247S/C412S): as above
# Method: Protease selection for limited digestion was carried out by adding elastase, thermolysin, proteinase K, or trypsin to SF-1 LBD in a protease:SF-1 LBD ratio of 1:500 (w/w), followed by incubation at 30 or 60 min and 10% SDS-PAGE followed by Coomassie stain. For determination of SF-1 proteolysis bound by PIP3(16:0/16:0) or PIP3(18:1/18:1), equal amounts of the purified SF-1 LBD used for crystallization without coactivator peptide were incubated with PIP3(16:0/16:0) or PIP3(18:1/18:1) at a protein:PIP3 molar ratio of 1:10, overnight at room temperature, a procedure determined in previous publications to result in complete PIP3 binding to SF-1 LBD. Limited proteolysis analysis was carried out by adding trypsin (Sigma) to SF1-PIP3 in a trypsin:SF-1 ratio of 1:500 (w/w), followed by incubation at 25°C for a 60 min time course. […] Gels were scanned, and the band intensities quantified using Image J (NIH). […]
# (also on this page, place not known: Time (min) Relative percentage protection 0.0002*** Supplemental Figure S1:SF-1 dioleoyl is dipalmitoyl PIP3(16:0/16:0). Coomassie-stained trypsin-digested PIP3 species, trypsin treated 60-minute time course, reactions boiled run gel. B.Relative quantitation expressed percentage signal from in lane, quantified using graph comparing either PIP3(16:0/16:0) indicated PIP3(18:1/18:1) indicated trypsin Sidak’smultiple n=3). […]
# [3] = biological target: T4, human SF-1 ligand binding domain (218–461) 2CS Cys-lite mutant (C247S and C412S) (human, UniProt Q13285 218-461, C247S | C412S); experiment: fluorescence polarisation; SF-1 LBD bound to bacterial phospholipid serially diluted from 50 uM; 100 nM 5Fam-PGC1α peptide; 20 mM Hepes (7.5), 150 mM NaCl; 1 h at room temperature; one-site binding model; apparent Kd; settings: both partners purified
# T4 construct: also called SF-1 LBD; SF-1 LBD (2CS); not shown: His6, N-terminal, cleaved
# T4 sequence (Q13285 218-461 C247S/C412S): as above
# [4] = biological target: T5, human SF-1 LBD (218-461) 2CS Cys-lite mutant (C247S and C412S) (human, UniProt Q13285 218-461, C247S | C412S); experiment: fluorescence polarisation; SF-1 LBD complexed with dipalmitoyl PIP3(16:0/16:0); 100 nM 5Fam-labeled peptide; 20 mM Hepes (7.5), 150 mM NaCl; 1 h at room temperature; one-site binding model; apparent; settings: both partners purified
# T5 construct: The His tag was removed with TEV; also called steroidogenic factor-1; NR5A1; source: complexed with dioleoyl PIP3, dipalmitoyl PIP3 or co-purifying bacterial phospholipid; not shown: His6, N-terminal, cleaved
# T5 sequence (Q13285 218-461 C247S/C412S): as above
# [5] = biological target: T5, human SF-1 LBD (218-461) 2CS Cys-lite …; experiment: fluorescence polarisation; SF-1 LBD complexed with dioleoyl PIP3(18:1/18:1), serially diluted from 50 μM; 100 nM 5Fam-labeled peptide; 20 mM Hepes (7.5), 150 mM NaCl; 1 h at room temperature; one-site binding model; settings: both partners purified
# [6] = biological target: T5, human SF-1 LBD (218-461) 2CS Cys-lite …; experiment: crystal structure; SF-1 LBD complexed with dioleoyl PIP3(18:1/18:1), then with 3-fold molar excess of PGC1α peptide; sitting drop, 20% PEG 3350, 0.2 M magnesium formate, 20°C; settings: both partners purified
molecule,measurement,setting,value
CCCCCCCCCCCCCCCC(=O)OCC(COP(=O)(O)OC1C(O)C(O)C(OP(=O)(O)O)C(OP(=O)(O)O)C1O)OC(=O)CCCCCCCCCCCCCCC (stereo not drawn) [dipalmitoyl (16:0/16:0) PIP2],Kd,human apo-SF-1 LBD [1],348 ± 42 nM
"CCCCCCCCCCCCCCCC(=O)OC[C@H](COP(=O)(O)OC1C(O)C(OP(=O)(O)O)C(OP(=O)(O)O)C(OP(=O)(O)O)C1O)OC(=O)CCCCCCCCCCCCCCC (stereo partly drawn) [dipalmitoyl PIP3, 1,2-dipalmitoyl-sn-glycero-3-[phosphoinositol-3,4,5-triphophosate]]",Kd,human apo-SF-1 LBD [1],130 ± 14 nM
same,affinity for SF-1,human apo-SF-1 LBD [2],nanomolar affinity
"CCCCCCCC/C=C\CCCCCCCC(=O)OC[C@H](COP(=O)(O)OC1C(O)C(OP(=O)(O)O)C(OP(=O)(O)O)C(OP(=O)(O)O)C1O)OC(=O)CCCCCCC/C=C\CCCCCCCC (stereo partly drawn) [dioleoyl PIP3, 1,2-di-(9Z-octadecenoyl)-sn-glycero-3-[phosphoinositol-3,4,5-trisphosphate]]",Kd,human apo-SF-1 LBD [1],71 ± 10 nM
same,fold lower apparent Kd than dipalmitoyl (16:0/16:0) PIP3,human apo-SF-1 LBD [1]; dioleoyl vs dipalmitoyl PIP3 binding to SF-1 LBD,3 fold
same,fold poorer affinity of PGC1α coactivator peptide for SF-1 compared with dipalmitoyl PIP3,human SF-1 LBD (2CS),6 fold
same,fold poorer affinity of PGC1α coactivator peptide for SF-1 compared with dipalmitoyl PIP3,human SF-1 LBD (2CS); listed as Dioleoyl PIP3(18:1/18:1),≥ 5 fold
same,trypsin protease sensitivity of SF-1 bound to the lipid,SF-1 LBD,increased trypsin protease sensitivity
5Fam-EEPSLLKKLLLAPA-OH (the validation report numbers the modelled residues P141-A152 (D2:p5); also called PGC1α peptide; fluorophore-labeled PGC1α peptide; source: synthetic peptide; bought: New England Peptide),Kd,[3],6800 ± 2000 nM
"5Fam-EEPSLLKKLLLAPA-OH (also called fluorophore-labeled PGC1α peptide; fluorescently labeled peptide; source: synthetic peptide, bought: New England Peptide)",Kd,[4],7700 ± 1400 nM
same,Kd,[5],> 42000 nM
"H-EEPSLLKKLLLAPA-OH (Unlabelled peptide used for co-crystallisation, free N- and C-termini as printed; also called PGC1α peptide; source: synthetic peptide, bought: New England Peptide) [synthetic peptide representing the human PGC1α co-activator (H3N-EEPSLLKKLLLAPA-OH)]",binding result,[6],binds

# — article PMC8178125, “The acyl chains of phosphoinositide PIP3 alter the structure and function of nuclear receptor steroidogenic factor-1” (Journal of Lipid Research, 2021)
